Data published in patent US7803930B2, “Antisense modulation of apolipoprotein B-expression” (Isis Pharmaceuticals, Inc., priority 2002, dated 2010).
In the oligonucleotide strings, read from the 5' end, every base follows the letter of its sugar. An asterisk marks phosphorothioate; unmarked linkages are phosphodiester. Other units and linkages are bracketed, terminal groups are in braces. A string of capitals states the bases alone. e = 2'-O-(2-methoxyethyl) (MOE); [5mC] = 5-methylcytosine; d = 2'-deoxy (DNA)

Tests used:
[1] = LDLr(-/-) mice dose response (Example 44): liver enzyme, cholesterol and triglyceride levels; format: in vivo, mouse; conditions: 50 mg/kg i.p. twice a week, six weeks
Experimental: LDLr(−/−) mice, purchased from Taconic (Germantown, N.Y.) were used to evaluate antisense oligonucleotides for their potential to lower apolipoprotein B mRNA or protein levels, as well as phenotypic endpoints associated with apolipoprotein B. LDLr(−/−) mice were separated into groups of males and females. LDLr(−/−) mice were dosed intraperitoneally twice a week for six weeks with either 10, 25, or 50 mg/kg of ISIS 147764 (SEQ ID NO: 109) or ISIS 270906 (SEQ ID NO: 856) which is a 4 base mismatch of ISIS 147764, or with saline, or 20 mg/kg of Atorvastatin. At study termination animals were sacrificed and evaluated for several phenotypic markers.

[2] = tested on: mouse apolipoprotein B mRNA; assay: Inhibition of mouse apolipoprotein B mRNA levels in primary mouse hepatocytes, real-time PCR; format: cell-based; conditions: for % INHIB: Table 3, 150 nM, averages from two experiments; for Percent Inhibition 50 nM: Table 4, 50 nM; for Percent Inhibition 150 nM: Table 4, 150 nM; for Percent Inhibition 300 nM: Table 4, 300 nM
Experimental: Primary mouse hepatocytes were prepared from CD-1 mice purchased from Charles River Labs (Wilmington, Mass.) and were routinely cultured in Hepatoyte Attachment Media (Gibco) supplemented with 10% Fetal Bovine Serum (Gibco/Life Technologies, Gaithersburg, Md.), 250 nM dexamethasone (Sigma), and 10 nM bovine insulin (Sigma). Cells were seeded into 96-well plates (Falcon-Primaria #3872) at a density of 10000 cells/well for use in RT-PCR analysis.
When cells reached 80% confluency, they were treated with oligonucleotide. For cells grown in 96-well plates, wells were washed once with 200 μL OPTI-MEM™-1 reduced-serum medium (Gibco BRL) and then treated with 130 μL of OPTI-MEM™-1 containing 3.75 μg/mL LIPOFECTIN™ (Gibco BRL) and the desired concentration of oligonucleotide. After 4-7 hours of treatment, the medium was replaced with fresh medium. Cells were harvested 16-24 hours after oligonucleotide treatment.
Quantitation of apolipoprotein B mRNA levels was determined by real-time quantitative PCR using the ABI PRISM™ 7700 Sequence Detection System (PE-Applied Biosystems, Foster City, Calif.) according to manufacturer's instructions. This is a closed-tube, non-gel-based, fluorescence detection system which allows high-throughput quantitation of polymerase chain reaction (PCR) products in real-time. As opposed to standard PCR, in which amplification products are quantitated after the PCR is completed, products in real-time quantitative PCR are quantitated as they accumulate. This is accomplished by including in the PCR reaction an oligonucleotide probe that anneals specifically between the forward and reverse PCR primers, and contains two fluorescent dyes. A reporter dye (e.g., JOE, FAM, or VIC, obtained from either Operon Technologies Inc., Alameda, Calif. or PE-Applied Biosystems, Foster City, Calif.) is attached to the 5′ end of the probe and a quencher dye (e.g., TAMRA, obtained from either Operon Technologies Inc., Alameda, Calif. or PE-Applied Biosystems, Foster City, Calif.) is attached to the 3′ end of the probe. When the probe and dyes are intact, reporter dye emission is quenched by the proximity of the 3′ quencher dye. During amplification, annealing of the probe to the target sequence creates a substrate that can be cleaved by the 5′-exonuclease activity of Taq polymerase. […] With each cycle, additional reporter dye molecules are cleaved from their respective probes, and the fluorescence intensity is monitored at regular intervals by laser optics built into the ABI PRISM™ 7700 Sequence Detection System. In each assay, a series of parallel reactions containing serial dilutions of mRNA from untreated control samples generates a standard curve that is used to quantitate the percent inhibition after antisense oligonucleotide treatment of test samples.
Probes and primers to mouse apolipoprotein B were designed to hybridize to a mouse apolipoprotein B sequence, using published sequence information (GenBank accession number M35186, incorporated herein as SEQ ID NO: 10). For mouse apolipoprotein B the PCR primers were: forward primer: CGTGGGCTCCAGCATTCTA (SEQ ID NO: 11) reverse primer: […] (SEQ ID NO: 12) and the PCR probe was: FAM-[…]-TAMRA SEQ ID NO: 13) where FAM (PE-Applied Biosystems, Foster City, Calif.) is the fluorescent reporter dye) and TAMRA (PE-Applied Biosystems, Foster City, Calif.) is the quencher dye. For mouse GAPDH the PCR primers were: forward primer: […] (SEQ ID NO: 14) reverse primer: […] (SEQ ID NO:15) and the PCR probe was: 5′ JOE-[…]-TAMRA 3′ (SEQ ID NO: 16) where JOE (PE-Applied Biosystems, Foster City, Calif.) is the fluorescent reporter dye) and TAMRA (PE-Applied Biosystems, Foster City, Calif.) is the quencher dye.
In accordance with the present invention, a series of oligonucleotides was designed to target different regions of the mouse apolipoprotein B RNA, using published sequence (GenBank accession number M35186, incorporated herein as SEQ ID NO: 10). […]

## 270906 (antisense GTCCCTCAACATCTGAATGC; listed as DNA, chemistry not given here) [compound 270906]
[1]; female LDLr(-/-) mice
  Lipoproteins CHOL: 564.6 mg/dL
  Lipoproteins HDL: 200.0 mg/dL
  Lipoproteins LDL: 310.0 mg/dL
  Lipoproteins TRIG: 240.4 mg/dL
  Liver Enzymes ALT: 88.6 IU/L
  Liver Enzymes AST: 96.0 IU/L
[1]; male LDLr(-/-) mice
  Lipoproteins CHOL: 941.0 mg/dL
  Lipoproteins HDL: 244.2 mg/dL
  Lipoproteins LDL: 541.9 mg/dL
  Lipoproteins TRIG: 844.8 mg/dL
  Liver Enzymes ALT: 348.0 IU/L
  Liver Enzymes AST: 167.4 IU/L

## 147488 (eA*eG*e[5mC]*eT*eT*dG*d[5mC]*dT*dT*dG*dT*dT*dG*dG*dG*e[5mC]*eA*e[5mC]*eG*eG; antisense) [compound 147488]
[2]
  % INHIB: 72%

## 147774 (antisense eT*eG*eG*e[5mC]*eT*dA*dG*dT*dT*dT*d[5mC]*dA*dA*dT*d[5mC]*e[5mC]*e[5mC]*e[5mC]*eT*eT) [compound 147774]
[2]
  % INHIB: 84%

## 147770 (eG*eT*eG*eT*eT*dG*dA*dA*dT*d[5mC]*d[5mC]*d[5mC]*dT*dT*dG*eA*eA*eA*eT*e[5mC]; antisense) [compound 147770]
[2]
  % INHIB: 67%

## 147771 (eG*eG*eT*eA*eA*dA*dG*dT*dT*dG*d[5mC]*d[5mC]*d[5mC]*dA*dT*eG*eG*e[5mC]*eT*eG; antisense) [compound 147771]
[2]
  % INHIB: 68%

## 147772 (antisense eG*eT*eT*eA*eT*dA*dA*dA*dG*dT*d[5mC]*d[5mC]*dA*dG*d[5mC]*eA*eT*eT*eG*eG) [compound 147772]
[2]
  % INHIB: 78%

## 147496 (eA*e[5mC]*e[5mC]*eA*eT*dG*dG*dA*dA*dA*dA*d[5mC]*dT*dG*dG*e[5mC]*eA*eA*e[5mC]*eT; antisense) [compound 147496]
[2]
  % INHIB: 19%

## 147482 (eG*eT*e[5mC]*e[5mC]*eA*dG*d[5mC]*d[5mC]*dT*dA*dG*dG*dA*dA*d[5mC]*eA*e[5mC]*eT*e[5mC]*eA; antisense) [compound 147482]
[2]
  % INHIB: 59%

## 147499 (e[5mC]*eT*eG*e[5mC]*eA*dG*dG*dG*d[5mC]*dG*dT*d[5mC]*dA*dG*dT*eG*eA*e[5mC]*eA*eA; antisense) [compound 147499]
[2]
  % INHIB: 29%

## 147489 (e[5mC]*e[5mC]*eT*eA*eT*dA*d[5mC]*dT*dG*dG*d[5mC]*dT*dT*d[5mC]*dT*eA*eT*eG*eT*eT; antisense) [compound 147489]
[2]
  % INHIB: 5%

## 147759 (eA*eG*eG*eT*eG*dA*dG*dG*dA*dA*dG*dT*dT*dG*dG*eA*eA*eT*eT*e[5mC]; antisense) [compound 147759]
[2]
  % INHIB: 19%

## 147501 (e[5mC]*eT*eT*eG*eG*dT*dT*dA*dA*dA*d[5mC]*dT*dA*dA*dT*eG*eG*eT*eG*e[5mC]; antisense) [compound 147501]
[2]
  % INHIB: 18%

## 147769 (e[5mC]*eA*eT*eG*e[5mC]*d[5mC]*dT*dG*dG*dA*dA*dG*d[5mC]*d[5mC]*dA*eG*eT*eG*eT*e[5mC]) [compound 147769]
[2]
  % INHIB: 89%
  Percent Inhibition 50 nM: 3%
  Percent Inhibition 150 nM: 14%
  Percent Inhibition 300 nM: 28%

## 147493 (eG*e[5mC]*eT*eT*e[5mC]*dA*dT*dT*dA*dT*dA*dG*dG*dA*dG*eG*eT*eG*eG*eT; antisense) [compound 147493]
[2]
  % INHIB: 41%

## 147766 (eG*eG*eA*eG*e[5mC]*d[5mC]*d[5mC]*dA*d[5mC]*dG*dT*dG*d[5mC]*dT*dG*eA*eG*eA*eT*eT; antisense) [compound 147766]
[2]
  % INHIB: 59%

## 147776 (antisense eG*e[5mC]*eT*eT*eG*dA*dA*dG*dT*dT*d[5mC]*dA*dT*dT*dG*eA*eG*eA*eA*eT) [compound 147776]
[2]
  % INHIB: 92%
  Percent Inhibition 50 nM: 0%
  Percent Inhibition 150 nM: 17%
  Percent Inhibition 300 nM: 44%
